The test system of assay [1] is lung cancer cell line NCI-H358 having the KRAS G12C variant. Description: Cell viability (Cell Titer-Glo) on combined administration, NCI-H358. It is filed as cell-based. From the text: When the example compound was used in combination with an anticancer agent, the effect on the growth ability of cancer cells expressing KRAS variant or EGFR variant was confirmed. In order to confirm the effect of the example compound in combination with a MEK inhibitor or a KRAS G12C inhibitor in the cell line having the KRAS variant, the cell growth inhibitory effect by the treatment of the example compound in combination with a MEK inhibitor or a KRAS G12C inhibitor was confirmed in the gastric cancer cell line SNU-1 and the pancreatic cancer cell line KP4 having the KRAS G12D variant, the lung cancer cell line NCI-H358 and the pancreatic cancer cell line MIA PaCa-2 having the KRAS G12C variant, the colorectal cancer cell line SW480 having the KRAS G12V variant, the lung cancer cell line A549 having the KRAS G12S variant, the colorectal cancer cell line LoVo having the KRAS G13D variant. In addition, in order to confirm the effect of the example compound in combination with an EGFR inhibitor in the cell line having the EGFR variant, the cell growth inhibitory effect by the treatment of the example compound in combination with an EGFR inhibitor was confirmed in the lung cancer cell line H1975 having the EGFR L858R/T790M variant and the lung cancer cell line HCC827 having the EGFR Del19 variant. […]
(ATP-based viability assays read luminescence as a measure of living cells.)

For assay [2], the target named is T1, KRAS^G12C::SOS1 (Homo sapiens, UniProt Q07889).
T1 sequence (Q07889 1-1333): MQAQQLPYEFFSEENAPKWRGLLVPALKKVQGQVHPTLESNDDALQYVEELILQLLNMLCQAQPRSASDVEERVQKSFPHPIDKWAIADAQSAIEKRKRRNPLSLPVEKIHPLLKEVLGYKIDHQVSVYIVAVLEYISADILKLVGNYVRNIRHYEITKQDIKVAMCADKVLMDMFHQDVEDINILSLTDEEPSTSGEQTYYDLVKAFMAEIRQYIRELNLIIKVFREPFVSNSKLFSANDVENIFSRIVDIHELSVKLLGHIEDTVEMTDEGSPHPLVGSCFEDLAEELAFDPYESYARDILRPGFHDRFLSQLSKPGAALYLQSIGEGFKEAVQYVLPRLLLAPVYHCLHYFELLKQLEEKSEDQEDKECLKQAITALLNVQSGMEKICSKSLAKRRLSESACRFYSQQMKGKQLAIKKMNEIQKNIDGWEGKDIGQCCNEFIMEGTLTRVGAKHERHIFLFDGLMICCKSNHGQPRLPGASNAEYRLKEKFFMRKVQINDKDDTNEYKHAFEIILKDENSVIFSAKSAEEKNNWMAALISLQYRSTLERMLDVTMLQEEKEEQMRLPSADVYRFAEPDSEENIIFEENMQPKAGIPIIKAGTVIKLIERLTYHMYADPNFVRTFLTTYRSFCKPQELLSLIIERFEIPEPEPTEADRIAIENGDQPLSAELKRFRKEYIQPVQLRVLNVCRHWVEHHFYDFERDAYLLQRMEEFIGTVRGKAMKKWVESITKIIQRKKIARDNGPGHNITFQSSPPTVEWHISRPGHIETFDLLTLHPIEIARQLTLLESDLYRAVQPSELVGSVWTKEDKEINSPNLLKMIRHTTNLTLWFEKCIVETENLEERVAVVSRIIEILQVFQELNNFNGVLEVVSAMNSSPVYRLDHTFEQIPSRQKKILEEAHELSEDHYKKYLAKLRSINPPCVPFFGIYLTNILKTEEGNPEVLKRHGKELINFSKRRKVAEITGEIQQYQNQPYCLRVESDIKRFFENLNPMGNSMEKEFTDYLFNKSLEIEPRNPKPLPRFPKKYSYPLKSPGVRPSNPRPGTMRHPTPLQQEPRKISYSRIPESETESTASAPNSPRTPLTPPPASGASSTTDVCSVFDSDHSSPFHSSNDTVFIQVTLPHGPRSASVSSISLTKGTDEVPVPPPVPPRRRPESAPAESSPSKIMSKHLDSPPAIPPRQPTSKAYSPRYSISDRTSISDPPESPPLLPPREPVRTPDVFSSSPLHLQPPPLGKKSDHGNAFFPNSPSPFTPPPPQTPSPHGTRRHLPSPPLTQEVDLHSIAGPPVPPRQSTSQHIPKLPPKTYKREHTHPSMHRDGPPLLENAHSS
Nature of the assay: KRAS G12C::SOS1 protein-protein interaction (PPI) inhibition assay (HTRF binding kit).

Assay [3] addresses T2, SOS1 (Homo sapiens, UniProt Q07889).
T2 construct: adding equal amounts of HIS-SOS1cat (160 nM; Cytoskeleton, US); His; purchased Cytoskeleton, US
T2 sequence (Q07889 564-1049 limits assumed): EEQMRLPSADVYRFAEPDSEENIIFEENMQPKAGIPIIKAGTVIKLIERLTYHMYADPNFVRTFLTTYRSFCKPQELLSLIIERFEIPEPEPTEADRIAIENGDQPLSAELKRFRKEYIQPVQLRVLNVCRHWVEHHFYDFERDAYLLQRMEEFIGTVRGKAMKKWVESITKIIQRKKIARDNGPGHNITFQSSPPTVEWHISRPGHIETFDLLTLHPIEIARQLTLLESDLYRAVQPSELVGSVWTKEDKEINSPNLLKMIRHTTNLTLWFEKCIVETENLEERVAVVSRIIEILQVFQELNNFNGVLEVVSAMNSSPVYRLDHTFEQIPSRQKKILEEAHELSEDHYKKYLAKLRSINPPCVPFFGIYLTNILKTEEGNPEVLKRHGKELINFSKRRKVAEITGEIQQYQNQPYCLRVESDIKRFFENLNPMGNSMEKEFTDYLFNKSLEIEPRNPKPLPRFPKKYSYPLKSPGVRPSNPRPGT
Nature of the assay: SOS-catalyzed nucleotide exchange assay (HTRF, SOS1-mediated GTP loading of KRAS G12D). The class given is biochemical. Put shortly:
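SOS1cat (HIS-tagged) preincubated 10 min at room temperature with compound (128 pM-10 µM), then GST-KRAS G12D with anti-GST terbium added; GTP loading tracked as HTRF with a DY-647P1 GTP analogue after 30 min, buffer HEPES pH 7.4. GEF-free wells for normalization; IC50 derived.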
In general terms: Time-resolved FRET reads energy transfer from a long-lived donor to a nearby acceptor.

Assay [4] concerns lung cancer cell line H358 having the KRAS G12C variant. Description: SynergyScreen determination of combination concentration (ATPlite 1Step cell viability). The class given is cell-based. Conditions: EFFECT20 applied as final treatment concentration in the combination experiment. The protocol:
The cells were treated by adding 5 µL of a test solution of Example B01 per well to a 384 well plate in which the lung cancer cell line H358 having the KRAS G12C variant was dispensed so that the final concentration of the substance was 31.6 µM to 0.00316 µM in 50 µL of the solution per well. The cells treated with Example B01 were cultured under conditions of 37 °C and 5% carbon dioxide for 72 h or 120 h. In order to measure cell viability, each well was treated with 24 µL of ATPlite 1Step™ (PerkinElmer) solution, then mixed for 2 minutes, and reacted by blocking light for 5 minutes, and then the luminescence signal was measured using an Envision multilabel reader (PerkinElmer). The cell viability was determined according to the formula below, and the concentration (EFFECT20) of Example B01 that induces 20% cell death was calculated using IDBS XLfit 5. The EFFECT20 concentration of Example B01 determined through the experiment was applied as the final treatment concentration of Example B01 during the combination effect experiment. [formula]
In order to confirm the effect of Example B01 in combination with various anticancer agents, a total of 42 anticancer agents, including cytotoxic anticancer agents and targeted anticancer agents, were used for evaluation (Table 31). […]

The mark [5] stands for this setting: GST-KRAS G12D, HIS-SOS1cat, EDA-GTP-DY-647P1, compound 128 pM to 10 µM, read-out: SOS-catalyzed nucleotide exchange assay (IC50 range, Grade).

Where two headings read alike, the source gives them in different places.

As usually defined, the IC50 is the midpoint of a concentration-inhibition curve. In the case of `CNCc1ccc(Cl)cc1-c1ccc([C@@H](C)NC(=O)c2ccc(=O)n(-c3ccccc3F)n2)s1` [Example 295, N-[(1R)-1-[5-[5-chloro-2-(methylaminomethyl)phenyl]-2-thienyl]ethyl]-1-(2-fluorophenyl)-6-oxo-pyridazine-3-carboxamide], the cell viability result in assay [1] (INK-128 (3.2-100 nM) in combination with Example 295 (0-300 nM) compared to INK-128 alone, 72 h, FIG. 1) is “decreased”; in assay [1] (sotorasib (0.14-10 nM) in combination with Example 295 (0-300 nM) compared to sotorasib alone, FIG. 2), “decreased”. This compound also had an IC50 in assay [2] of less than 1000 nM.
As to `C[C@@H](NC(=O)c1ccc(=O)n(-c2cncc(-c3cnnn3C)c2)n1)c1cccc(C(F)(F)F)c1F` [Example B01, N-[(1R)-1-[2-fluoro-3-(trifluoromethyl)phenyl]ethyl]-1-[5-(3-methyltriazol-4-yl)-3-pyridyl]-6-oxo-pyridazine-3-carboxamide], the IC50 in assay [3] and in assay [2] was less than 1000 nM in each case. The “concentration (EFFECT20) that induces 20% cell death” value in assay [4] (culture time 72 h) came out at 1854 nM; in assay [4] (culture time 120 h) it was 652 nM.
For the compound `Cc1cc(C(=O)N[C@H](C)c2cccc(C(F)(F)F)c2F)cn(-c2cncc(-c3cnnn3C)c2)c1=O` [Example B10, (R)-N-(1-(2-fluoro-3-(trifluoromethyl)phenyl)ethyl)-3-methyl-5'-(1-methyl-1H-1,2,3-triazol-5-yl)-2-oxo-2H-[1,3'-bipyridine]-5-carboxamide], the IC50 in assay [3] (setting [5]) and in assay [2] was less than 1000 nM throughout.
On to `[2H]C([2H])([2H])n1nncc1-c1cncc(-n2nc(C(=O)N[C@H](C)c3cccc(C(F)(F)F)c3F)ccc2=O)c1` [Example B11, N-[(1R)-1-[2-fluoro-3-(trifluoromethyl)phenyl]ethyl]-6-oxo-1-[5-[3-(trideuteriomethyl)triazol-4-yl]-3-pyridyl]pyridazine-3-carboxamide], for which the IC50 in assay [3] (setting [5]) and in assay [2] was less than 1000 nM in each case.
Turning to “N-[(1R)-1-[3-amino-5-(trifluoromethyl)phenyl]ethyl]-6-oxo-1-[4-(trifluoromethoxy)phenyl]pyridazine-3-carboxamide [Example 154]”, the IC50 was 1000 to 10000 nM in assay [3] (setting [5]) and less than 1000 nM in assay [2] (read-out: KRAS ^G12C::SOS1 PPI assay (IC50 range, Grade), maximum concentration 3 µM, 8 concentrations, three replicates).
